Assay results published in US20150266850A1 (E.I.DU PONT DE NEMOURS AND COMPANY, priority 2012, published 2015).
Marks after values point to notes of the source that are not given here.

Key:
Type in all cases: in vivo
[1] = tested on: Puccinia recondita f sp. tritici; experiment: Test B: wheat leaf rust, preventive spray on wheat seedlings, visual disease rating; conditions: 100 = 100% disease control; for pest or weed control at 200 ppm / pest or weed control at 40 ppm: 192 h
Outline: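 Test suspension in acetone/water 50/50 with 250 ppm Trem® 014, sprayed to run-off on wheat seedlings at 200 ppm (≈800 g/ha), or 40 or 50 ppm where marked. Inoculated next day with spores, held 24 h saturated at 20° C, then 7 days at 20° C; disease control rated visually, 0–100 versus controls.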

[2] = tested on: Erysiphe graminis f. sp. tritici; experiment: Test A: wheat powdery mildew, preventive spray on wheat seedlings, visual disease rating; conditions: 100 = 100% disease control; for pest or weed control at 200 ppm / pest or weed control at 40 ppm: Blumeria graminis, 192 h
Outline: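 Wheat seedlings sprayed to run-off with compound in acetone/water with 250 ppm Trem 014 (200 ppm ≈ 800 g/ha; some at 40 or 50 ppm), inoculated next day with spore dust. After 8 days at 20° C, disease control rated visually, 0–100% relative to controls.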

Septoria nodorum = experiment: Test D: wheat glume blotch, preventive spray on wheat seedlings, visual disease rating; conditions: 100 = 100% disease control; for pest or weed control at 200 ppm / pest or weed control at 40 ppm: Parastagonospora nodorum, 216 h
Outline: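 Preventive test: wheat seedlings sprayed to run-off with compound suspension (acetone/water with 250 ppm Trem 014; 200 ppm, some at 40 or 50 ppm), inoculated with Septoria nodorum next day. Held 48 h saturated at 20° C, then 7 days at 20° C; visual rating 0-100% disease control versus controls.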

Botrytis cinerea = experiment: Test E: tomato botrytis, preventive spray on tomato seedlings, visual disease rating; conditions: 100 = 100% disease control; for pest or weed control at 200 ppm / pest or weed control at 40 ppm: Botrytis cinerea, 120 h
Text: General protocol for preparing test suspensions for Tests A-E: the test compounds were first dissolved in acetone in an amount equal to 11% of the final volume and then suspended at the desired concentration (in ppm) in acetone and purified water (50/50 mix by volume) containing 250 ppm of the surfactant Trem® 014 (polyhydric alcohol esters). The resulting test suspensions were then used in Tests A-E. Spraying a 200 ppm test suspension to the point of run-off on the test plants was the equivalent of a rate of 800 g/ha.
The test suspension was sprayed to the point of run-off on tomato seedlings. The following day the seedlings were inoculated with a spore suspension of Botrytis cinerea (the causal agent of tomato botrytis) and incubated in saturated atmosphere at 20° C. for 48 h, and then moved to a growth chamber at 27° C. for 3 additional days, after which time disease ratings were visually made.
Results for Tests A-E are given in Table A. In the Table, a rating of 100 indicates 100% disease control and a rating of 0 indicates no disease control (relative to the controls). A dash (-) indicates no test results. All results are for 200 ppm except where followed by an “*”, which indicates 40 ppm or “**”, which indicates 50 ppm.

Septoria tritici = experiment: Test C: wheat leaf blotch, preventive spray on wheat seedlings, visual disease rating; conditions: 100 = 100% disease control; for pest or weed control at 200 ppm / pest or weed control at 40 ppm: Zymoseptoria tritici, 504 h
Outline: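 Compounds in acetone (11% of final volume) suspended in acetone/water 50/50 with 250 ppm Trem® 014; 200 ppm (≈800 g/ha), some at 40 or 50 ppm, sprayed to run-off. Septoria tritici inoculated next day; 48 h saturated at 24° C., then 19 days at 20° C.; visual rating, 0–100% control vs untreated.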

COC(=O)NCc1cc(-c2ccn(-c3ccc(Cl)cc3F)n2)ccc1C [Cmpd 65]
Test B disease control rating ([1]; 40 ppm (*)): 100* %
Test A disease control rating ([2]; 40 ppm (*)): 100* %
Test D disease control rating (Septoria nodorum; 40 ppm (*)): 100* %
Test E disease control rating (Botrytis cinerea; 40 ppm (*)): 94* %
Test C disease control rating (Septoria tritici; 40 ppm (*)): 98* %

COC(=O)NCc1cc(-n2ncc(-c3ccc(F)cc3F)n2)ccc1C [Cmpd 67]
Test B disease control rating ([1]; 40 ppm (*)): 100* %
Test A disease control rating ([2]; 40 ppm (*)): 100* %
Test D disease control rating (Septoria nodorum; 40 ppm (*)): 100* %
Test E disease control rating (Botrytis cinerea; 40 ppm (*)): 33* %
Test C disease control rating (Septoria tritici; 40 ppm (*)): 98* %

COC(=O)NCc1cc(-n2ncc(-c3ccc(OC)cc3Cl)n2)ccc1C [Cmpd 68]
Test B disease control rating ([1]; 40 ppm (*)): 100* %
Test A disease control rating ([2]; 40 ppm (*)): 100* %
Test D disease control rating (Septoria nodorum; 40 ppm (*)): 100* %
Test E disease control rating (Botrytis cinerea; 40 ppm (*)): 77* %
Test C disease control rating (Septoria tritici; 40 ppm (*)): 99* %

COC(=O)NCc1cc(-n2ccc(-c3ccc(C#N)cc3C)n2)ccc1C [Cmpd 69]
Test B disease control rating ([1]; 40 ppm (*)): 100* %
Test A disease control rating ([2]; 40 ppm (*)): 100* %
Test D disease control rating (Septoria nodorum; 40 ppm (*)): 100* %
Test E disease control rating (Botrytis cinerea; 40 ppm (*)): 0* %
Test C disease control rating (Septoria tritici; 40 ppm (*)): 66* %

COC(=O)NCc1cc(-n2ccc(-c3ccc(Cl)cc3O)n2)ccc1C [Cmpd 71]
Test B disease control rating ([1]; 200 ppm): 99%
Test A disease control rating ([2]; 200 ppm): 90%
Test D disease control rating (Septoria nodorum; 200 ppm): 100%
Test E disease control rating (Botrytis cinerea; 200 ppm): 8%
Test C disease control rating (Septoria tritici; 200 ppm): 51%

COC(=O)NCc1cc(-n2ccc(-c3ccc(Cl)cc3OCC#N)n2)ccc1C [Cmpd 72]
Test B disease control rating ([1]; 40 ppm (*)): 100* %
Test A disease control rating ([2]; 40 ppm (*)): 93* %
Test D disease control rating (Septoria nodorum; 40 ppm (*)): 100* %
Test E disease control rating (Botrytis cinerea; 40 ppm (*)): 0* %
Test C disease control rating (Septoria tritici; 40 ppm (*)): 90* %

CCOc1ccc(-c2ccn(-c3ccc(C)c(CNC(=O)OC)c3)n2)c(Cl)c1 [Cmpd 76]
Test B disease control rating ([1]; 40 ppm (*)): 100* %
Test A disease control rating ([2]; 40 ppm (*)): 100* %
Test D disease control rating (Septoria nodorum; 40 ppm (*)): 100* %
Test E disease control rating (Botrytis cinerea; 40 ppm (*)): 0* %
Test C disease control rating (Septoria tritici; 40 ppm (*)): 99* %

CCOc1cc(Cl)ccc1-c1ccn(-c2ccc(C)c(CNC(=O)OC)c2)n1 [Cmpd 77]
Test B disease control rating ([1]; 40 ppm (*)): 100* %
Test A disease control rating ([2]; 40 ppm (*)): 100* %
Test D disease control rating (Septoria nodorum; 40 ppm (*)): 100* %
Test E disease control rating (Botrytis cinerea; 40 ppm (*)): 0* %
Test C disease control rating (Septoria tritici; 40 ppm (*)): 99* %

COC(=O)NCc1cc(-n2ccc(-c3ccc(Cl)cc3Br)n2)ccc1C [Cmpd 80]
Test B disease control rating ([1]; 40 ppm (*)): 100* %
Test A disease control rating ([2]; 40 ppm (*)): 97* %
Test D disease control rating (Septoria nodorum; 40 ppm (*)): 100* %
Test E disease control rating (Botrytis cinerea; 40 ppm (*)): 81* %
Test C disease control rating (Septoria tritici; 40 ppm (*)): 58* %

COC(=O)NCc1cc(-n2ncc(-c3ccc(Cl)cc3Cl)n2)ccc1C [Cmpd 86]
Test B disease control rating ([1]; 40 ppm (*)): 100* %
Test A disease control rating ([2]; 40 ppm (*)): 99* %
Test D disease control rating (Septoria nodorum; 40 ppm (*)): 100* %
Test E disease control rating (Botrytis cinerea; 40 ppm (*)): 54* %
Test C disease control rating (Septoria tritici; 40 ppm (*)): 93* %

COC(=O)NCc1cc(-n2ncc(-c3ccc(F)cc3Cl)n2)ccc1C [Cmpd 87]
Test B disease control rating ([1]; 40 ppm (*)): 100* %
Test A disease control rating ([2]; 40 ppm (*)): 98* %
Test D disease control rating (Septoria nodorum; 40 ppm (*)): 100* %
Test E disease control rating (Botrytis cinerea; 40 ppm (*)): 61* %
Test C disease control rating (Septoria tritici; 40 ppm (*)): 88* %

COC(=O)NCc1cc(-c2ccn(-c3ccc(N)cc3Cl)n2)ccc1C [Cmpd 90]
Test B disease control rating ([1]; 200 ppm): 98%
Test A disease control rating ([2]; 200 ppm): 0%
Test D disease control rating (Septoria nodorum; 200 ppm): 100%
Test E disease control rating (Botrytis cinerea; 200 ppm): 97%
Test C disease control rating (Septoria tritici; 200 ppm): 100%

COC(=O)NCc1cc(-n2ccc(-c3ccc(OC)cc3O)n2)ccc1C [Cmpd 103]
Test B disease control rating ([1]; 200 ppm): 100%
Test A disease control rating ([2]; 200 ppm): 48%
Test D disease control rating (Septoria nodorum; 200 ppm): 100%
Test E disease control rating (Botrytis cinerea; 200 ppm): 0%
Test C disease control rating (Septoria tritici; 200 ppm): 74%

COC(=O)NCc1cc(-n2ncc(-c3ccc(OC)cc3C(F)(F)F)n2)ccc1C [Cmpd 104]
Test B disease control rating ([1]; 40 ppm (*)): 100* %
Test A disease control rating ([2]; 40 ppm (*)): 98* %
Test D disease control rating (Septoria nodorum; 40 ppm (*)): 100* %
Test E disease control rating (Botrytis cinerea; 40 ppm (*)): 0* %
Test C disease control rating (Septoria tritici; 40 ppm (*)): 91* %

C#CCOc1cc(Cl)ccc1-c1ccn(-c2ccc(C)c(CNC(=O)OC)c2)n1 [Cmpd 108]
Test B disease control rating ([1]; 200 ppm): 100%
Test A disease control rating ([2]; 200 ppm): 99%
Test D disease control rating (Septoria nodorum; 200 ppm): 100%
Test E disease control rating (Botrytis cinerea; 200 ppm): 8%
Test C disease control rating (Septoria tritici; 200 ppm): 95%

COC(=O)NCc1cc(-n2ccc(-c3ccc(Br)cc3Br)n2)ccc1C [Cmpd 109]
Test B disease control rating ([1]; 40 ppm (*)): 100* %
Test A disease control rating ([2]; 40 ppm (*)): 99* %
Test D disease control rating (Septoria nodorum; 40 ppm (*)): 100* %
Test E disease control rating (Botrytis cinerea; 40 ppm (*)): 0* %
Test C disease control rating (Septoria tritici; 40 ppm (*)): 92* %

COC(=O)NCc1cc(-n2ccc(-c3ccc([N+](=O)[O-])cc3Cl)n2)ccc1C [Cmpd 110]
Test B disease control rating ([1]; 40 ppm (*)): 100* %
Test A disease control rating ([2]; 40 ppm (*)): 72* %
Test D disease control rating (Septoria nodorum; 40 ppm (*)): 100* %
Test E disease control rating (Botrytis cinerea; 40 ppm (*)): 0* %
Test C disease control rating (Septoria tritici; 40 ppm (*)): 93* %

COC(=O)NCc1cc(-c2ccn(-c3ccc(Br)cc3C#N)n2)ccc1C [Cmpd 111]
Test B disease control rating ([1]; 200 ppm): 100%
Test A disease control rating ([2]; 200 ppm): 94%
Test D disease control rating (Septoria nodorum; 200 ppm): 100%
Test E disease control rating (Botrytis cinerea; 200 ppm): 0%
Test C disease control rating (Septoria tritici; 200 ppm): 93%

COC(=O)NCc1cc(-n2ncc(-c3ccc(OC)cc3OC)[n+]2[O-])ccc1C [Compound 4]
pest or weed control at 200 ppm ([1]; 200 ppm): 100%
pest or weed control at 200 ppm ([2]; 200 ppm): 99%
pest or weed control at 200 ppm (Septoria nodorum; 200 ppm): 100%
pest or weed control at 200 ppm (Botrytis cinerea; 200 ppm): 69%
pest or weed control at 200 ppm (Septoria tritici; 200 ppm): 99%

COC(=O)NCc1cc(-n2ncc(-c3ccc(OC)cc3C)n2)ccc1C [Compound 8, methyl N-[[5-[4-(4-methoxy-2-methylphenyl)-2H-1,2,3-triazol-2-yl]-2-methylphenyl]methyl]carbamate]
pest or weed control at 200 ppm ([1]; 200 ppm): 100%
pest or weed control at 200 ppm ([2]; 200 ppm): 100%
pest or weed control at 200 ppm (Septoria nodorum; 200 ppm): 100%
pest or weed control at 200 ppm (Botrytis cinerea; 200 ppm): 90%
pest or weed control at 200 ppm (Septoria tritici; 200 ppm): 100%

COC(=O)NCc1cc(-c2ccn(-c3ccc(OC)cc3Cl)n2)ccc1C [Compound 20, methyl N-[[5-[1-(2-chloro-4-methoxyphenyl)-1H-pyrazol-3-yl]-2-methylphenyl]-methyl]carbamate]
pest or weed control at 200 ppm ([1]; 200 ppm): 100%
pest or weed control at 200 ppm ([2]; 200 ppm): 100%
pest or weed control at 200 ppm (Septoria nodorum; 200 ppm): 100%
pest or weed control at 200 ppm (Botrytis cinerea; 200 ppm): 0%
pest or weed control at 200 ppm (Septoria tritici; 200 ppm): 100%

COC(=O)NCc1cc(-c2ccn(-c3ccc(Cl)cc3OC)n2)ccc1C [Compound 28, methyl N-[[5-[1-(4-chloro-2-methoxyphenyl)-1H-pyrazol-3-yl]-2-methylphenyl]-methyl]carbamate]
pest or weed control at 200 ppm ([1]; 200 ppm): 100%
pest or weed control at 200 ppm ([2]; 200 ppm): 100%
pest or weed control at 200 ppm (Septoria nodorum; 200 ppm): 100%
pest or weed control at 200 ppm (Botrytis cinerea; 200 ppm): 57%
pest or weed control at 200 ppm (Septoria tritici; 200 ppm): 100%

COC(=O)NCc1cc(-n2ccc(-c3ccc(C)cc3C)n2)ccc1C [Compound 38, methyl N-[[5-[3-(2,4-dimethylphenyl)-1H-pyrazol-1-yl]-2-methylphenyl]-methyl]carbamate]
pest or weed control at 40 ppm ([1]; 40 ppm (*)): 100%
pest or weed control at 40 ppm ([2]; 40 ppm (*)): 100%
pest or weed control at 40 ppm (Septoria nodorum; 40 ppm (*)): 100%
pest or weed control at 40 ppm (Botrytis cinerea; 40 ppm (*)): 98%
pest or weed control at 40 ppm (Septoria tritici; 40 ppm (*)): 100%

COC(=O)NCc1cc(-c2ncn(-c3ccc(OC)cc3C)n2)ccc1C [Compound 70, methyl N-[[5-[1-(4-methoxy-2-methylphenyl)-1H-1,2,4-triazol-3-yl]-2-methylphenyl]methyl]carbamate]
pest or weed control at 40 ppm ([1]; 40 ppm (*)): 100%
pest or weed control at 40 ppm ([2]; 40 ppm (*)): 99%
pest or weed control at 40 ppm (Septoria nodorum; 40 ppm (*)): 100%
pest or weed control at 40 ppm (Botrytis cinerea; 40 ppm (*)): 84%
pest or weed control at 40 ppm (Septoria tritici; 40 ppm (*)): 96%

COC(=O)NCc1cc(-n2ncc(-c3ccc(I)cc3OC)[n+]2[O-])ccc1C [Compound 81]
pest or weed control at 200 ppm ([1]; 200 ppm): 100%
pest or weed control at 200 ppm ([2]; 200 ppm): 99%
pest or weed control at 200 ppm (Septoria nodorum; 200 ppm): 100%
pest or weed control at 200 ppm (Botrytis cinerea; 200 ppm): 67%
pest or weed control at 200 ppm (Septoria tritici; 200 ppm): 98%
